The nature of series [1]: Physical stability in aqueous-based formulations. The format is physicochemical. The conditions noted are these: relative to anhydrous free base (Form 7) and acetic acid solvate (Form 3); e.g., topical formulations.
Series [2] in a line: Water sorption/desorption study by DVS. The format is physicochemical. As for the experimental part: A DVS method was employed to study the sorption/desorption behavior of Form 24.
Method: The method involved a standard sorption run from 0% RH to 90% RH, employing humidity rise at steps of 10% RH at 20° C., followed by a de-sorption run down to 0% RH and a second sorption/desorption cycle from 0% RH to 90% RH in 10% step change of RH at 20° C.

For series [3], the system named is c-ros oncogene 1 (ROS1) receptor tyrosine kinase. The conditions noted are these: wild type and resistance mutant forms, including ROS1 G2032R; cited from earlier work.
The subject of series [4] is ALK-positive NSCLC xenograft models and intracranial ALK-positive tumor models. The conditions noted are these: cited from earlier work.
Series [5] concerns anaplastic lymphoma kinase (ALK). The settings on record: wild type and resistance mutant forms, including ALK G1202R; cited from earlier work.
Setting [6] is: targeted relative humidity 0% RH, 20° C.
Setting [7] is: targeted relative humidity 10% RH, 20° C.
[8] abbreviates: targeted relative humidity 20% RH, 20° C.
The mark [9] stands for this setting: targeted relative humidity 30% RH, 20° C.
Setting [10] is: targeted relative humidity 40% RH, 20° C.
The mark [11] stands for this setting: targeted relative humidity 50% RH, 20° C.
Setting [12] is: targeted relative humidity 60% RH, 20° C.
Setting [13] is: targeted relative humidity 70% RH, 20° C.
[14] abbreviates: targeted relative humidity 80% RH, 20° C.
[15] abbreviates: targeted relative humidity 90% RH, 20° C.

Take `C[C@H]1Oc2cc(cnc2N)-c2c(nn(C)c2C#N)CN(C)C(=O)c2ccc(F)cc21` [Form 24, (10R)-7-amino-12-fluoro-2,10,16-trimethyl-15-oxo-10,15,16,17-tetrahydro-2H-8,4-(metheno)pyrazolo[4,3-h][2,5,11]benzoxadiazacyclotetra-decine-3-carbonitrile (lorlatinib) Free Base Hydrate (Form 24)]: the “physical stability in aqueous-based formulations” value in series [1] is “improved physical stability”. Also, in series [2] (0-90% RH, 20° C.), the “hysteresis of de-sorption isotherms with respect to sorption isotherm” value is given as “very little hysteresis”. Besides, the “% Water First Cycle” value in series [2] (setting [6]) was determined as 0.00%; in series [2] (setting [7]), 0.06%; in series [2] (setting [8]), 0.13%; in series [2] (setting [9]), 0.19%; in series [2] (setting [10]), 0.27%; in series [2] (setting [11]) it was 0.34%. Moreover, the “% Water First Cycle” value in series [2] (setting [12]) stood at 0.43%; in series [2] (setting [13]), 0.52%; in series [2] (setting [14]) it was 0.64%; in series [2] (setting [15]), 0.78%. Also, the “% Water Second Cycle” value in series [2] (setting [6]) was 0.00%; in series [2] (setting [7]) it was 0.06%; in series [2] (setting [8]) it was 0.13%; in series [2] (setting [9]), 0.20%; in series [2] (setting [10]), 0.27%; in series [2] (setting [11]) it was 0.35%. The “% Water Second Cycle” value in series [2] (setting [12]) was found to be 0.44%; in series [2] (setting [13]), 0.54%; in series [2] (setting [14]), 0.65%; in series [2] (setting [15]), 0.78%. In series [2] (water level change between dry and wet state), the “change of mass between a dry and wet state” value was “below 1%”.
With `C[C@H]1Oc2cc(cnc2N)-c2c(nn(C)c2C#N)CN(C)C(=O)c2ccc(F)cc21` [Lorlatinib, (10R)-7-amino-12-fluoro-2,10,16-trimethyl-15-oxo-10,15,16,17-tetra-hydro-2H-8,4-(metheno)pyrazolo[4,3-h][2,5,11]benzoxadiazacyclotetradecine-3-carbonitrile], the “potency against ROS1” value in series [3] was “nanomolar potency”. In addition, in series [4], the antitumor activity result was “demonstrated antitumor activity”. The “potency against ALK” value in series [5] is given as “nanomolar potency”.

Source of the values: patent US11299500B2, “Crystalline form of lorlatinib free base hydrate” (Pfizer Inc., priority 2017, dated 2022).
